Measured values published in paper PMC9414507, “Drug Repurposing Based on Protozoan Proteome: In Vitro Evaluation of In Silico Screened Compounds against Toxoplasma gondii” (Pharmaceutics, 2022).
Read-outs that look alike come from different tables or passages of the source.

Columns and labels:
[1] = ref Pandemic Response Box and COVID Box supporting information; cited from earlier work
[2] = Cytotoxicity in mammalian cells (MTT assay); type: cell-based; details: human, read-out: CC50 (Half Cytotoxic Concentration against HFF cells)
Experimental: HFF were seeded at 5 × 10^4 cells/well in 96-well microplates and incubated overnight to adhere to the plate. After that, the cells were incubated in the presence of increasing concentrations of the compounds for 72 h at 37 °C in a 5% CO2 humidified incubator. The viability of the cells was determined by the MTT assay as previously described. The medium in each well was replaced by PBS (100 µL/well), MTT (5 mg/mL) was added (20 µL/well), and the plate was incubated for 4 h at 37 °C. […] HFF incubated in D2 without drug treatment were used as viability control. Viability of 100% was expressed based on the optical density of untreated HFF cells, after normalization.

Compound	Rule of Five [1]	CC50 at 72 h ([2]; HFF cells) [nM]	CC50 at 72 h ([2]; HFF) [nM]
COc1cccc2c1C(=O)c1c(O)c3c(c(O)c1C2=O)C[C@@](O)(C(=O)CO)C[C@@H]3O[C@H]1C[C@H](N)[C@H](O)[C@H](C)O1 [Doxorubicin]	1		
C=CCNc1nc(NCC=C)nc(N2CCN(C(c3ccc(F)cc3)c3ccc(F)cc3)CC2)n1 [Almitrine]	3	> 20000	
NC(=O)c1ncn([C@@H]2O[C@H](CO)[C@@H](O)[C@H]2O)n1 [Ribavirin]	4		
CC(C)C[C@H](NC(=O)[C@H](Cc1ccccc1)NC(=O)c1cnccn1)B(O)O [Bortezomib]	4		79
C[C@H]1O[C@@H](O[C@H]2[C@@H](O)C[C@H](O[C@H]3[C@@H](O)C[C@H](O[C@H]4CC[C@@]5(C)[C@H](CC[C@@H]6[C@@H]5CC[C@]5(C)[C@@H](C7=CC(=O)OC7)CC[C@]65O)C4)O[C@@H]3C)O[C@@H]2C)C[C@H](O)[C@@H]1O [Digitoxin]	2		
C[C@H]1COc2c(N3CCN(C)CC3)c(F)cc3c(=O)c(C(=O)O)cn1c23 [Levofloxacin]	4		
C[C@H]1O[C@@H](O[C@H]2[C@@H](O)C[C@H](O[C@H]3[C@@H](O)C[C@H](O[C@H]4CC[C@@]5(C)[C@H](CC[C@@H]6[C@@H]5C[C@@H](O)[C@]5(C)[C@@H](C7=CC(=O)OC7)CC[C@]65O)C4)O[C@@H]3C)O[C@@H]2C)C[C@H](O)[C@@H]1O [Digoxin]	1		
Nc1nc(F)nc2c1ncn2[C@@H]1O[C@H](CO)[C@@H](O)[C@@H]1O [Fludarabine]	4		2140
CCCC(CCC)C(=O)O [Valproic acid]	4		
COc1c(C)c2c(c(O)c1C/C=C(\C)CCC(=O)O)C(=O)OC2 [Mycophenolic acid]	4		
COc1cc(Cc2cnc(N)nc2N)cc(OC)c1OC [Trimethoprim]	4		
